# ChEMBL document CHEMBL1201862, “PubChem BioAssay data set” (2004)
#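 The compound was tested at five concentrations on cells cultured in 96-well plates, with a 48-hour exposure period. Here, GI50 denotes the concentration required for 50% inhibition of growth.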 Activity calls are given as the source filed them. No stated cut-off is given here; in the data, active = GI50 up to about 1.1 µM and inactive = higher.
# Columns and labels:
# Assay in all cases: NCI-60 cell line screen, 48 h
# RPMI-8226 = system: RPMI-8226
# LOX IMVI = system: LOX IMVI
# KM-20L2 = system: KM-20L2
# UACC-62 = system: UACC-62
# SF-295 = system: SF-295
# HOP-62 = system: HOP-62
# TK-10 = system: TK-10
# SN12C = system: SN12C
# HOP-18 = system: HOP-18
# NCI-H460 = system: NCI-H460
# SF-539 = system: SF-539
# OVCAR-3 = system: OVCAR-3
# EKVX = system: EKVX
# DMS-114 = system: DMS-114
# HT-29 = system: HT-29
# K562 = system: K562
# MOLT-4 = system: MOLT-4
# COLO 205 = system: COLO 205
# 786-0 = system: 786-0
# RXF 631 = system: RXF 631
# HCT-15 = system: HCT-15
# U-251 = system: U-251
# M14 = system: M14
# DMS-273 = system: DMS-273
# DLD-1 = system: DLD-1
# A498 = system: A498
# IGROV-1 = system: IGROV-1
# ACHN = system: ACHN
# A549 = system: A549
# HCC 2998 = system: HCC 2998
# SK-MEL-5 = system: SK-MEL-5
# SK-OV-3 = system: SK-OV-3
# M19-MEL = system: M19-MEL
# OVCAR-4 = system: OVCAR-4
# HL-60 = system: HL-60
# CAKI-1 = system: CAKI-1
# UACC-257 = system: UACC-257
# LXFL 529 = system: LXFL 529
# SNB-75 = system: SNB-75
# SK-MEL-28 = system: SK-MEL-28
# SNB-78 = system: SNB-78
# SW-620 = system: SW-620
# OVCAR-8 = system: OVCAR-8
# HCT-116 = system: HCT-116
# CCRF-CEM = system: CCRF-CEM
# XF498 = system: XF498
# SNB-19 = system: SNB-19
# RXF 393 = system: RXF 393
# SK-MEL-2 = system: SK-MEL-2
# UO-31 = system: UO-31
# SF-268 = system: SF-268
# Malme-3M = system: Malme-3M
# HOP-92 = system: HOP-92
# OVCAR-5 = system: OVCAR-5
# KM12 = system: KM12
# NCI-H23 = system: NCI-H23
# NCI-H522 = system: NCI-H522
# NCI-H226 = system: NCI-H226
structure (smiles),measurement,setting,value
CCc1c(C#N)c(=O)[nH]c(=O)n1CCN1CCN(C(=O)NCCCCCCNC(=O)N2CCN(CCn3c(CC)c(C#N)c(=O)[nH]c3=O)CC2)CC1,GI50,RPMI-8226,> 100 µM (inactive)
same,GI50,LOX IMVI,> 100 µM (inactive)
same,GI50,KM-20L2,> 100 µM (inactive)
same,GI50,UACC-62,> 100 µM (inactive)
same,GI50,SF-295,> 100 µM (inactive)
same,GI50,HOP-62,> 100 µM (inactive)
same,GI50,TK-10,> 100 µM (inactive)
same,GI50,SN12C,> 100 µM (inactive)
same,GI50,HOP-18,> 100 µM (inactive)
same,GI50,NCI-H460,> 100 µM (inactive)
same,GI50,SF-539,> 100 µM (inactive)
same,GI50,OVCAR-3,> 100 µM (inactive)
same,GI50,EKVX,> 100 µM (inactive)
same,GI50,DMS-114,> 100 µM (inactive)
same,GI50,HT-29,> 100 µM (inactive)
same,GI50,K562,> 100 µM (inactive)
same,GI50,MOLT-4,> 100 µM (inactive)
same,GI50,COLO 205,> 100 µM (inactive)
same,GI50,786-0,> 100 µM (inactive)
same,GI50,RXF 631,> 100 µM (inactive)
same,GI50,HCT-15,> 100 µM
same,GI50,U-251,> 100 µM (inactive)
same,GI50,M14,> 100 µM (inactive)
same,GI50,DMS-273,> 100 µM (inactive)
same,GI50,DLD-1,> 100 µM (inactive)
same,GI50,A498,> 100 µM (inactive)
same,GI50,IGROV-1,> 100 µM (inactive)
same,GI50,ACHN,> 100 µM (inactive)
same,GI50,A549,> 100 µM (inactive)
same,GI50,HCC 2998,> 100 µM (inactive)
same,GI50,SK-MEL-5,> 100 µM (inactive)
same,GI50,SK-OV-3,> 100 µM (inactive)
same,GI50,M19-MEL,> 100 µM (inactive)
same,GI50,OVCAR-4,> 100 µM (inactive)
same,GI50,HL-60,> 100 µM (inactive)
same,GI50,CAKI-1,> 100 µM (inactive)
same,GI50,UACC-257,> 100 µM (inactive)
same,GI50,LXFL 529,> 100 µM (inactive)
same,GI50,SNB-75,> 10 µM (inactive)
same,GI50,SK-MEL-28,> 10 µM (inactive)
same,GI50,SNB-78,> 100 µM (inactive)
same,GI50,SW-620,> 100 µM (inactive)
same,GI50,OVCAR-8,> 100 µM (inactive)
same,GI50,HCT-116,> 100 µM (inactive)
same,GI50,CCRF-CEM,> 100 µM (inactive)
same,GI50,XF498,> 100 µM (inactive)
same,GI50,SNB-19,> 100 µM (inactive)
CC1=CCCC(OC(N)=O)C1 (configuration not stated),GI50,RPMI-8226,> 100 µM (inactive)
same,GI50,RXF 393,> 100 µM (inactive)
same,GI50,SK-MEL-2,> 100 µM (inactive)
same,GI50,LOX IMVI,> 100 µM (inactive)
same,GI50,KM-20L2,> 100 µM (inactive)
same,GI50,UACC-62,> 100 µM (inactive)
same,GI50,SF-295,> 100 µM (inactive)
same,GI50,UO-31,> 100 µM (inactive)
same,GI50,HOP-62,> 100 µM (inactive)
same,GI50,SF-268,> 100 µM (inactive)
same,GI50,TK-10,> 100 µM (inactive)
same,GI50,SN12C,> 100 µM (inactive)
same,GI50,HOP-18,> 100 µM (inactive)
same,GI50,NCI-H460,> 100 µM (inactive)
same,GI50,Malme-3M,> 100 µM (inactive)
same,GI50,SF-539,> 100 µM (inactive)
same,GI50,OVCAR-3,> 100 µM (inactive)
same,GI50,EKVX,> 100 µM (inactive)
same,GI50,HT-29,> 100 µM (inactive)
same,GI50,K562,> 100 µM (inactive)
same,GI50,MOLT-4,> 100 µM (inactive)
same,GI50,COLO 205,> 100 µM (inactive)
same,GI50,786-0,> 100 µM (inactive)
same,GI50,RXF 631,> 100 µM (inactive)
same,GI50,HCT-15,> 100 µM
same,GI50,HOP-92,46.2 µM (inactive)
same,GI50,U-251,> 100 µM (inactive)
same,GI50,M14,> 100 µM (inactive)
same,GI50,DMS-273,> 100 µM (inactive)
same,GI50,DLD-1,> 100 µM (inactive)
same,GI50,A498,32.4 µM (inactive)
same,GI50,IGROV-1,> 100 µM (inactive)
same,GI50,ACHN,> 100 µM (inactive)
same,GI50,A549,> 100 µM (inactive)
same,GI50,OVCAR-5,> 100 µM (inactive)
same,GI50,HCC 2998,> 100 µM (inactive)
same,GI50,SK-MEL-5,> 100 µM (inactive)
same,GI50,SK-OV-3,> 100 µM (inactive)
same,GI50,KM12,> 100 µM (inactive)
same,GI50,M19-MEL,> 100 µM (inactive)
same,GI50,OVCAR-4,> 100 µM (inactive)
same,GI50,HL-60,> 100 µM (inactive)
same,GI50,CAKI-1,> 100 µM (inactive)
same,GI50,UACC-257,> 100 µM (inactive)
same,GI50,LXFL 529,> 100 µM (inactive)
same,GI50,SNB-75,97.7 µM (inactive)
same,GI50,SNB-78,> 100 µM (inactive)
same,GI50,SW-620,> 100 µM (inactive)
same,GI50,OVCAR-8,> 100 µM (inactive)
same,GI50,NCI-H23,> 100 µM (inactive)
same,GI50,HCT-116,> 100 µM (inactive)
same,GI50,CCRF-CEM,> 100 µM (inactive)
same,GI50,XF498,> 100 µM (inactive)
same,GI50,SNB-19,> 100 µM (inactive)
COC(=O)CCC12CCC(=O)C1[C@@H](C(=O)OC)C[C@H]2C(=O)OC (some centres not stated),GI50,RPMI-8226,> 100 µM (inactive)
same,GI50,RXF 393,> 100 µM (inactive)
same,GI50,SK-MEL-2,> 100 µM (inactive)
same,GI50,NCI-H522,> 100 µM (inactive)
same,GI50,LOX IMVI,> 100 µM (inactive)
same,GI50,KM-20L2,> 100 µM (inactive)
same,GI50,UACC-62,> 100 µM (inactive)
same,GI50,SF-295,> 100 µM (inactive)
same,GI50,UO-31,> 100 µM (inactive)
same,GI50,HOP-62,> 100 µM (inactive)
same,GI50,SF-268,> 100 µM (inactive)
same,GI50,TK-10,> 100 µM (inactive)
same,GI50,SN12C,> 100 µM (inactive)
same,GI50,HOP-18,> 100 µM (inactive)
same,GI50,NCI-H460,> 100 µM (inactive)
same,GI50,Malme-3M,> 100 µM (inactive)
same,GI50,SF-539,> 100 µM (inactive)
same,GI50,OVCAR-3,> 100 µM (inactive)
same,GI50,EKVX,> 100 µM (inactive)
same,GI50,DMS-114,> 100 µM (inactive)
same,GI50,HT-29,> 100 µM (inactive)
same,GI50,K562,> 100 µM (inactive)
same,GI50,MOLT-4,> 100 µM (inactive)
same,GI50,COLO 205,> 100 µM (inactive)
same,GI50,786-0,> 100 µM (inactive)
same,GI50,RXF 631,> 100 µM (inactive)
same,GI50,HCT-15,> 100 µM
same,GI50,U-251,> 100 µM (inactive)
same,GI50,M14,> 100 µM (inactive)
same,GI50,DMS-273,> 100 µM (inactive)
same,GI50,DLD-1,> 100 µM (inactive)
same,GI50,A498,> 100 µM (inactive)
same,GI50,IGROV-1,> 100 µM (inactive)
same,GI50,ACHN,> 100 µM (inactive)
same,GI50,A549,> 100 µM (inactive)
same,GI50,OVCAR-5,> 100 µM (inactive)
same,GI50,HCC 2998,> 100 µM (inactive)
same,GI50,SK-MEL-5,> 100 µM (inactive)
same,GI50,SK-OV-3,> 100 µM (inactive)
same,GI50,KM12,> 100 µM (inactive)
same,GI50,M19-MEL,> 100 µM (inactive)
same,GI50,OVCAR-4,> 100 µM (inactive)
same,GI50,HL-60,> 100 µM (inactive)
same,GI50,CAKI-1,> 100 µM (inactive)
same,GI50,UACC-257,> 100 µM (inactive)
same,GI50,LXFL 529,> 100 µM (inactive)
same,GI50,NCI-H226,> 100 µM (inactive)
same,GI50,SNB-75,> 100 µM (inactive)
same,GI50,SNB-78,> 100 µM (inactive)
same,GI50,SW-620,> 100 µM (inactive)
same,GI50,OVCAR-8,> 100 µM (inactive)
same,GI50,NCI-H23,> 100 µM (inactive)
same,GI50,HCT-116,> 100 µM (inactive)
same,GI50,CCRF-CEM,> 100 µM (inactive)
same,GI50,XF498,> 100 µM (inactive)
same,GI50,SNB-19,> 100 µM (inactive)
